Assay results taken from patent publication US20240277641A1, “METHODS FOR TREATING NERVOUS SYSTEM DISORDERS WITH […] AGENTS” (PAXMEDICA, INC., priority 2021, published 2024).
Like-named read-outs stand apart in the source and are kept apart here.

What was measured:
mouse model of epilepsy = conditions: cited from earlier work
[1] = Suramin plasma pharmacokinetics in three-arm, randomized, double blind, placebo-controlled trial, intravenous infusion; format: in vivo, human; conditions: for Plasma Concentration / AUCInterval / AUCinterval/Dose / Cmax/Dose / Cmin / AUCOverall / AUCVisit 4 / AUCVisit 5 / AUCVisit 7 / Cmin, Visit 5 / Cmin, Visit 7 / Cmin. overall / Cmax / concentration at 28 day: mean; for half-life / Cmax / concentration at 28 day: male, human, plasma; for half-life: intravenous; for concentration at 28 day: read-out: Cmin, Visit 4
Source text: The following Table 2 outlines the visit schedule:
A non-compartmental pharmacokinetic (PK) approach consistent with the intravenous route of administration was used to estimate PK parameters in Watson LIMS software (version 7.5). […] All concentration values were in μg/mL, and all time points were in days as provided by the bioanalytical testing facility. Nominal dose concentrations and sampling times were used. The area under the plasma concentration-time curve (AUC) estimations were calculated on profiles having at least a quantifiable post-dose and pre-dose prior to the next dosing occasion. The observed maximum plasma concentration (Cmax) and time of Cmax (Tmax) were determined directly from the data.
Pharmacokinetic parameters were estimated using a non-compartmental approach consistent with intravenous infusion route of administration.
For area under the curve (AUC) estimation, measured plasma concentration for post dose and pre dose before the next dosing event were needed. For this study, samples for pharmacokinetic analysis were collected on days 1, 28, 56, and 96.
Whenever possible, standard deviation and coefficient of variation were determined by Watson LIMS software. For analyses that were not supported by Watson (i.e. custom comparisons), Excel was used and the statistics reported as determined by excel algorithms. Note that in either case, when the number of data points was less than three, standard deviation and coefficient of variation could not be calculated.
The route of administration was intravenous infusion over a 30 minute period on visits 2, 4, and 5.

[2] = tested on: male children with Autism Spectrum Disorder (ASD); assay: Efficacy by Aberrant Behavior Checklist (ABC) versus suramin blood levels in the ASD trial; format: in vivo, human; conditions: 10 or 20 mg/kg IV
Method: (§1) This is the first time that multiple doses were studied in patients with neurodevelopmental disorders, and where they were observed over a long term duration. Previously, only a single 20 mg/kg dose had been described in an ASD study. See, R. K. Naviaux, “Antipurinergic therapy for autism—An in-depth review”, Mitochondrion 43, pp. 1-15 (2018), available online Dec. 16, 2017.
Each study participant attended a total of 7 visits, screening period (Visit 1.14 days), Randomization visit (Visit 2 day 1), treatment follow up visits (visit 3; day 14), treatment visit (visit 4; Day 28), treatment visit (visit 5; Day 56), End of treatment visit (visit 6; Day 77) and EOS (visit 7; day 98). Window period for screening until visit 2 will be ±14 days (thus the study procedures can be performed over 14 days) and for visit 2 onwards will be ±2 days (thus the procedures can be performed over 5 days) (Visit 2 to 7).

[3] = tested on: male children with Autism Spectrum Disorder (ASD); assay: Adverse effects in the ASD trial; format: in vivo, human
Method: as §1
Since only predose, 1 hour post dose, and before the next dose administration samples were collected, it was not possible to determine the exact distribution and elimination curves and therefore extrapolated parameters such as AUC0-∞ and T1/2 were not determinable.

[4] = cited from earlier work
[5] = 10 mg/kg to 20 mg/kg dose range
[6] = Table 3A, 10 mg dose group, IV, children
[7] = Table 3C, 20 mg dose group, IV, children
[8] = Table 7, 10 mg/kg Dose, n = 13, IV
[9] = Table 7, 20 mg/kg Dose, n = 14, IV

O=C(NCC1(N2CCN(c3ccccc3)CC2)CCOCC1)c1cccnc1Sc1ccccc1 [JNJ-47965567, 2-(Phenylthio)-N-[[tetrahydro-4-(4-phenyl-1-piperazinyl)-2H-pyran-4-yl]methyl]-3-pyridinecarboxamide]
epileptic seizures (mouse model of epilepsy): suppress epileptic seizures

Cc1ccc(C(=O)Nc2ccc(S(=O)(=O)O)c3cc(S(=O)(=O)O)cc(S(=O)(=O)O)c23)cc1NC(=O)c1cccc(NC(=O)Nc2cccc(C(=O)Nc3cc(C(=O)Nc4ccc(S(=O)(=O)O)c5cc(S(=O)(=O)O)cc(S(=O)(=O)O)c45)ccc3C)c2)c1 [suramin, 1,3,5-Naphthalenetrisulfonic acid, 8,8′-[carbonylbis[imino-3,1-phenylenecarbonylimino(4-methyl-3,1-phenylene)carbonylimino]]bis-]
Plasma Concentration ([1]; 10 mg/kg IV, visit 2, day 1, 1 h post-infusion): 229 µg/mL
Plasma Concentration ([1]; 10 mg/kg IV, visit 4, day 28, 1 h post-infusion): 157 µg/mL
Plasma Concentration ([1]; 10 mg/kg IV, visit 4, day 28, pre-dose): 4.31 µg/mL
Plasma Concentration ([1]; 10 mg/kg IV, visit 5, day 56, 1 h post-infusion): 164 µg/mL
Plasma Concentration ([1]; 10 mg/kg IV, visit 5, day 56, pre-dose): 7.96 µg/mL
Plasma Concentration ([1]; 10 mg/kg IV, visit 7, day 96, EOS): 7.87 µg/mL
Dose proportionality of AUC0-96 [1, 5]: nearly dose proportional
Dose proportionality of Cmax [1, 5]: less than dose proportional
Plasma Concentration ([1]; 20 mg/kg IV, visit 2, day 1, 1 h post-infusion): 328 µg/mL
Plasma Concentration ([1]; 20 mg/kg IV, visit 4, day 28, 1 h post-infusion): 327 µg/mL
Plasma Concentration ([1]; 20 mg/kg IV, visit 4, day 28, pre-dose): 11 µg/mL
Plasma Concentration ([1]; 20 mg/kg IV, visit 5, day 56, 1 h post-infusion): 332 µg/mL
Plasma Concentration ([1]; 20 mg/kg IV, visit 5, day 56, pre-dose): 21.1 µg/mL
Plasma Concentration ([1]; 20 mg/kg IV, visit 7, day 96, EOS): 23.4 µg/mL
AUCInterval [1, 6]: 4780 µg·days/mL
AUCinterval/Dose [1, 6]: 478 µg·days/mL/mg
Cmax/Dose [1, 6]: 24.4 µg/mL/mg
Cmin [1, 6]: 4.3 µg/mL
AUCInterval [1, 7]: 9510 µg·days/mL
AUCinterval/Dose [1, 7]: 475 µg·days/mL/mg
Cmax/Dose [1, 7]: 18.3 µg/mL/mg
Cmin [1, 7]: 10.6 µg/mL
AUCOverall [1, 8]: 4600.0 µg·days/mL
AUCVisit 4 [1, 8]: 1195.6 µg·days/mL
AUCVisit 5 [1, 8]: 1386.7 µg·days/mL
AUCVisit 7 [1, 8]: 2017.7 µg·days/mL
AUCinterval/Dose [1, 8]: 460.0 µg·days/mL/mg
Cmax/Dose [1, 8]: 18.1 µg/mL/mg
Cmin, Visit 5 [1, 8]: 7.7 µg/mL
Cmin, Visit 7 [1, 8]: 7.7 µg/mL
Cmin. overall [1, 8]: 4.4 µg/mL
AUCOverall [1, 9]: 10203.6 µg·days/mL
AUCVisit 4 [1, 9]: 2431.4 µg·days/mL
AUCVisit 5 [1, 9]: 3121.4 µg·days/mL
AUCVisit 7 [1, 9]: 4650.7 µg·days/mL
AUCinterval/Dose [1, 9]: 510.1 µg·days/mL/mg
Cmax/Dose [1, 9]: 18.0 µg/mL/mg
Cmin, Visit 5 [1, 9]: 21.9 µg/mL
Cmin, Visit 7 [1, 9]: 24.2 µg/mL
Cmin. overall [1, 9]: 10.6 µg/mL
half-life ([1]; 10 mg low dose level, inferred from lack of accumulation): < 28 days
half-life ([1]; 20 mg high dose level, inferred from accumulation): > 28 days
Cmax ([1]; Table 3A, 10 mg dose group, IV, children, read-out: Cmax): 244 µg/mL
Cmax ([1]; Table 3C, 20 mg dose group, IV, children, read-out: Cmax): 365 µg/mL
Cmax ([1]; Table 7, 10 mg/kg Dose, n = 13, IV, read-out: Cmax, Oveall): 181 µg/mL
concentration at 28 day [1, 8]: 4400 ng/mL
Cmax ([1]; Table 7, 20 mg/kg Dose, n = 14, IV, read-out: Cmax, Oveall): 359 µg/mL
concentration at 28 day [1, 9]: 10900 ng/mL
change in ABC scores from baseline versus exposure [2]: A greater change in ABC scores from baseline was observed with lower exposures
correlation between blood levels and efficacy (ABC) ([2]; multiple doses): dynamic nonlinear correlation between antipurinergic blood levels and efficacy
adverse effects such as visible rash or vomiting ([3]; 10 mg/kg dose group): only one event
adverse effects such as visible rash or vomiting ([3]; 20 mg/kg dose group): occurred mostly in the 20 mg/kg dose group
half-life, average ([4]; average): 50 days
oral bioavailability ([4]; in vivo, po): poor oral bioavailability
